In ChEMBL document CHEMBL3885861, “Open TG-GATES”:

Species on record: Rattus norvegicus
Test: Open TG-GATES - Regimen: Daily Repeat
Assay type: toxicity, organism-based, Sprague-Dawley
Parameters: regimen Daily Repeat, gender Male, age 6 weeks
Details: in vivo, po, route gavage; for APTT / Bas / Eos / Fbg / Hb / Lym / MCH / MCHC / MCV / Mono / Neu / PT / Plat / RBC / Ret / WBC: tissue Blood; for KIDNEY_L / KIDNEY_R / KIDNEY_TOTAL: tissue Kidney; for LIVER: tissue Liver; for ALP / ALT / AST / BUN / CRE / Ca / Cl / DBIL / GLC / IP / K / LDH / Na / PL / RALB / TBIL / TC / TG / TP / gamma-GTP: tissue Plasma
[1] = 6 mg/kg, 72 h, dose level Middle, time 3 day
[2] = 6 mg/kg, […], dose level Middle, time 7 day
[3] = 6 mg/kg, […], dose level Middle, time 14 day
[4] = 6 mg/kg, […], dose level Middle, time 28 day
[5] = 20 mg/kg, 72 h, dose level High, time 3 day
[6] = 20 mg/kg, […], dose level High, time 7 day
[7] = 20 mg/kg, […], dose level High, time 14 day
[8] = 20 mg/kg, […], dose level High, time 28 day

## OCCN1CCN(CCCN2c3ccccc3Sc3ccc(C(F)(F)F)cc32)CC1 [FLUPHENAZINE]
[1]
  TERMINAL_BW: 198.7 g
  APTT: 15.9 s
  Bas: 0%
  Eos: 0.6%
  Fbg: 227.2 mg/dL
  Hb: 15.1 g/dL
  Lym: 88.4%
  MCH: 21.2 pg
  MCHC: 33.3%
  MCV: 63.7 fL
  Mono: 5.8%
  Neu: 5.2%
  PT: 12.2 s
  Plat: 119.2 x10_4/uL
  RBC: 711.6 x10_4/ul
  Ret: 3.4%
  WBC: 119.1 x10_2/uL
  KIDNEY_L: 0.9 g
  KIDNEY_R: 0.9 g
  KIDNEY_TOTAL: 1.8 g
  LIVER: 9.5 g
  ALP: 909.4 IU/L
  ALT: 35 IU/L
  AST: 58.6 IU/L
  BUN: 24.8 mg/dL
  CRE: 0.6 mg/dL
  Ca: 10.8 mg/dL
  Cl: 106.4 meq/L
  DBIL: 0.008 mg/dL
  GLC: 177.4 mg/dL
  IP: 8 mg/dL
  K: 4.6 meq/L
  LDH: 84.6 IU/L
  Na: 138.4 meq/L
  PL: 186.6 mg/dL
  RALB: 4.3 g/dL
  TBIL: 0.2 mg/dL
  TC: 98.4 mg/dL
  TG: 112.6 mg/dL
  TP: 6.1 g/dL
  gamma-GTP: 0.6 IU/L
[2]
  TERMINAL_BW: 230.3 g
  APTT: 16.8 s
  Bas: 0%
  Eos: 0.6%
  Fbg: 224.2 mg/dL
  Hb: 14 g/dL
  Lym: 78.6%
  MCH: 21 pg
  MCHC: 33.3%
  MCV: 63.1 fL
  Mono: 5.6%
  Neu: 15.2%
  PT: 12.1 s
  Plat: 82.3 x10_4/uL
  RBC: 668.6 x10_4/ul
  Ret: 3.6%
  WBC: 95.8 x10_2/uL
  KIDNEY_L: 1 g
  KIDNEY_R: 1 g
  KIDNEY_TOTAL: 2 g
  LIVER: 10.9 g
  ALP: 836 IU/L
  ALT: 33 IU/L
  AST: 62.6 IU/L
  BUN: 18 mg/dL
  CRE: 0.5 mg/dL
  Ca: 10.5 mg/dL
  Cl: 105.2 meq/L
  DBIL: 0.012 mg/dL
  GLC: 170.6 mg/dL
  IP: 8.4 mg/dL
  K: 4.8 meq/L
  LDH: 79.4 IU/L
  Na: 137.4 meq/L
  PL: 178.8 mg/dL
  RALB: 4.1 g/dL
  TBIL: 0.3 mg/dL
  TC: 96.4 mg/dL
  TG: 106 mg/dL
  TP: 6 g/dL
  gamma-GTP: 1 IU/L
[3]
  TERMINAL_BW: 284.3 g
  APTT: 15.9 s
  Bas: 0%
  Eos: 0.8%
  Fbg: 217.2 mg/dL
  Hb: 14.4 g/dL
  Lym: 79.6%
  MCH: 20.1 pg
  MCHC: 33.3%
  MCV: 60.5 fL
  Mono: 5.8%
  Neu: 14%
  PT: 12.1 s
  Plat: 97 x10_4/uL
  RBC: 716.4 x10_4/ul
  Ret: 3.6%
  WBC: 128.9 x10_2/uL
  KIDNEY_L: 1.1 g
  KIDNEY_R: 1.1 g
  KIDNEY_TOTAL: 2.3 g
  LIVER: 11.9 g
  ALP: 859.2 IU/L
  ALT: 29.4 IU/L
  AST: 63.2 IU/L
  BUN: 18 mg/dL
  CRE: 0.5 mg/dL
  Ca: 10.7 mg/dL
  Cl: 103.6 meq/L
  DBIL: 0 mg/dL
  GLC: 190.8 mg/dL
  IP: 7.8 mg/dL
  K: 4.6 meq/L
  LDH: 99.2 IU/L
  Na: 135.2 meq/L
  PL: 141 mg/dL
  RALB: 4.2 g/dL
  TBIL: 0.3 mg/dL
  TC: 68 mg/dL
  TG: 109.2 mg/dL
  TP: 5.9 g/dL
  gamma-GTP: 1.6 IU/L
[4]
  TERMINAL_BW: 346.8 g
  APTT: 17.2 s
  Bas: 0%
  Eos: 1.2%
  Fbg: 209.2 mg/dL
  Hb: 15.6 g/dL
  Lym: 83%
  MCH: 19.7 pg
  MCHC: 33.4%
  MCV: 58.9 fL
  Mono: 5%
  Neu: 10.6%
  PT: 12.3 s
  Plat: 89.8 x10_4/uL
  RBC: 792.6 x10_4/ul
  Ret: 2.2%
  WBC: 134.3 x10_2/uL
  KIDNEY_L: 1.2 g
  KIDNEY_R: 1.2 g
  KIDNEY_TOTAL: 2.4 g
  LIVER: 13.7 g
  ALP: 483.8 IU/L
  ALT: 32.8 IU/L
  AST: 58.6 IU/L
  BUN: 21.4 mg/dL
  CRE: 0.6 mg/dL
  Ca: 10.7 mg/dL
  Cl: 107.6 meq/L
  DBIL: 0.006 mg/dL
  GLC: 175.2 mg/dL
  IP: 6.3 mg/dL
  K: 4.5 meq/L
  LDH: 75 IU/L
  Na: 140.4 meq/L
  PL: 147 mg/dL
  RALB: 4.2 g/dL
  TBIL: 0.3 mg/dL
  TC: 66.4 mg/dL
  TG: 138.8 mg/dL
  TP: 6.3 g/dL
  gamma-GTP: 1.6 IU/L
[5]
  TERMINAL_BW: 168.5 g
  APTT: 13.2 s
  Bas: 0%
  Eos: 1.2%
  Fbg: 176.8 mg/dL
  Hb: 16 g/dL
  Lym: 84.6%
  MCH: 21.1 pg
  MCHC: 33.1%
  MCV: 63.6 fL
  Mono: 5.2%
  Neu: 9.2%
  PT: 12.7 s
  Plat: 131.6 x10_4/uL
  RBC: 756.8 x10_4/ul
  Ret: 1.2%
  WBC: 83.2 x10_2/uL
  KIDNEY_L: 0.9 g
  KIDNEY_R: 0.9 g
  KIDNEY_TOTAL: 1.7 g
  LIVER: 7.4 g
  ALP: 538 IU/L
  ALT: 28 IU/L
  AST: 76.2 IU/L
  BUN: 23.4 mg/dL
  CRE: 0.6 mg/dL
  Ca: 10.1 mg/dL
  Cl: 108.4 meq/L
  DBIL: 0.036 mg/dL
  GLC: 180.4 mg/dL
  IP: 7 mg/dL
  K: 4.2 meq/L
  LDH: 189 IU/L
  Na: 140 meq/L
  PL: 128 mg/dL
  RALB: 4.2 g/dL
  TBIL: 0.3 mg/dL
  TC: 74.6 mg/dL
  TG: 48.4 mg/dL
  TP: 5.8 g/dL
  gamma-GTP: 1 IU/L
[6]
  TERMINAL_BW: 190 g
  APTT: 15.9 s
  Bas: 0%
  Eos: 0.4%
  Fbg: 204.6 mg/dL
  Hb: 15.5 g/dL
  Lym: 86.4%
  MCH: 20.9 pg
  MCHC: 33.8%
  MCV: 61.7 fL
  Mono: 4.8%
  Neu: 8.4%
  PT: 12.6 s
  Plat: 95.7 x10_4/uL
  RBC: 745.2 x10_4/ul
  Ret: 2.3%
  WBC: 93.7 x10_2/uL
  KIDNEY_L: 0.9 g
  KIDNEY_R: 0.9 g
  KIDNEY_TOTAL: 1.8 g
  LIVER: 9 g
  ALP: 653.8 IU/L
  ALT: 44.4 IU/L
  AST: 79.6 IU/L
  BUN: 28.8 mg/dL
  CRE: 0.5 mg/dL
  Ca: 10.3 mg/dL
  Cl: 105.4 meq/L
  DBIL: 0.01 mg/dL
  GLC: 158.2 mg/dL
  IP: 7 mg/dL
  K: 4.4 meq/L
  LDH: 195.8 IU/L
  Na: 140.4 meq/L
  PL: 184.6 mg/dL
  RALB: 4.2 g/dL
  TBIL: 0.2 mg/dL
  TC: 101.2 mg/dL
  TG: 98.6 mg/dL
  TP: 6.2 g/dL
  gamma-GTP: 1 IU/L
[7]
  TERMINAL_BW: 258.2 g
  APTT: 16.1 s
  Bas: 0%
  Eos: 0.8%
  Fbg: 214.5 mg/dL
  Hb: 14.8 g/dL
  Lym: 80.2%
  MCH: 20.5 pg
  MCHC: 33.3%
  MCV: 61.6 fL
  Mono: 6.2%
  Neu: 13%
  PT: 12.3 s
  Plat: 95.6 x10_4/uL
  RBC: 724 x10_4/ul
  Ret: 3.9%
  WBC: 124.5 x10_2/uL
  KIDNEY_L: 1 g
  KIDNEY_R: 1 g
  KIDNEY_TOTAL: 2.1 g
  LIVER: 11.9 g
  ALP: 872 IU/L
  ALT: 44.8 IU/L
  AST: 81.5 IU/L
  BUN: 19.8 mg/dL
  CRE: 0.6 mg/dL
  Ca: 10.8 mg/dL
  Cl: 103.2 meq/L
  DBIL: 0.0025 mg/dL
  GLC: 182.8 mg/dL
  IP: 8.7 mg/dL
  K: 4.2 meq/L
  LDH: 148 IU/L
  Na: 137.2 meq/L
  PL: 141 mg/dL
  RALB: 4.2 g/dL
  TBIL: 0.2 mg/dL
  TC: 66.5 mg/dL
  TG: 86.8 mg/dL
  TP: 6.2 g/dL
  gamma-GTP: 2 IU/L
[8]
  TERMINAL_BW: 303.2 g
  APTT: 16.6 s
  Bas: 0%
  Eos: 0.8%
  Fbg: 206 mg/dL
  Hb: 15.6 g/dL
  Lym: 84.2%
  MCH: 19.4 pg
  MCHC: 33.7%
  MCV: 57.7 fL
  Mono: 4%
  Neu: 11%
  PT: 12.3 s
  Plat: 73.1 x10_4/uL
  RBC: 804 x10_4/ul
  Ret: 2.5%
  WBC: 157 x10_2/uL
  KIDNEY_L: 1.1 g
  KIDNEY_R: 1.2 g
  KIDNEY_TOTAL: 2.3 g
  LIVER: 11.9 g
  ALP: 676.6 IU/L
  ALT: 31.6 IU/L
  AST: 80.2 IU/L
  BUN: 24.2 mg/dL
  CRE: 0.7 mg/dL
  Ca: 10.4 mg/dL
  Cl: 111.2 meq/L
  DBIL: 0.022 mg/dL
  GLC: 170.8 mg/dL
  IP: 6.2 mg/dL
  K: 4.4 meq/L
  LDH: 145.6 IU/L
  Na: 142 meq/L
  PL: 114.4 mg/dL
  RALB: 4.2 g/dL
  TBIL: 0.3 mg/dL
  TC: 57.8 mg/dL
  TG: 35.4 mg/dL
  TP: 6.4 g/dL
  gamma-GTP: 1.4 IU/L
